Measurements reported in patent publication US9376425B2, “Heterocyclic compounds as MDM2 inhibitors for the treatment of cancer” (AMGEN INC., priority 2011, dated 2016).

Target: T1, human MDM2 (GST-hMDM2 1-188), interaction with biotinylated-p53 (1-83) (Homo sapiens, UniProt Q00987)
T1 construct: Amino acid residues 1-188 of human MDM2 were expressed; made in house; host or cells: Escherichia coli
Test: improved HTRF assay (HTRF2 assay), inhibition of HDM2-p53 interaction
Assay type: binding
Details: 0.2 nM GST-hMDM2, 0.5 nM biotinylated-p53, 100 mM KF
In short: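 GST-hMDM2 preincubated 20 min at RT with serially diluted compound, then biotinylated p53 (1-83, E. coli) added for 60 min. Detection with SA-XLent, anti-GST cryptate and KF, equilibrated >4 h; final DMSO 2%. TR-FRET read; % inhibition calculated relative to nutlin-3.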

T1 sequence (Q00987 1-188): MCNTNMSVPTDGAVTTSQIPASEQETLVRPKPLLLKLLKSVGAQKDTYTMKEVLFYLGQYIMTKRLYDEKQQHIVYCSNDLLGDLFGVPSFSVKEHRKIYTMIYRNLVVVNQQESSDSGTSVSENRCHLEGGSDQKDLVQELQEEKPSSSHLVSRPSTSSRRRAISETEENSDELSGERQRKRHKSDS

Structure (SMILES) | IC50
CC[C@@H](CN(c1ccccc1F)S(=O)(=O)C1CC1)N1C(=O)[C@@](C)(CC(=O)O)O[C@H](c2cccc(Cl)c2)[C@H]1c1ccc(Cl)cc1 (single isomer, unassigned) [Example 329, 2-((2R,5R,6R)-6-(3-Chlorophenyl)-5-(4-chlorophenyl)-4-((S)-1-(N-(2-fluorophenyl)cyclopropanesulfonamido)butan-2-yl)-2-methyl-3-oxomorpholin-2-yl)acetic acid or 2-((2S,5R,6R)-6-(3-chlorophenyl)-5-(4-chlorophenyl)-4-((S)-1-(N-(2-fluorophenyl)cyclopropanesulfonamido)butan-2-yl)-2-methyl-3-oxomorpholin-2-yl)acetic acid] | 138 nM
CC[C@@H](CS(=O)(=O)C(C)(C)C)N1C(=O)[C@@H](CC(=O)NC#N)O[C@H](c2cccc(Cl)c2)[C@H]1c1ccc(Cl)cc1 [Example 345, 2-((2R,5R,6R)-4-((S)-1-(tert-Butylsulfonyl)butan-2-yl)-6-(3-chlorophenyl)-5-(4-chlorophenyl)-3-oxomorpholin-2-yl)-N-cyanoacetamide] | < 1 nM
NC(=O)C[C@H]1O[C@H](c2cccc(Cl)c2)[C@@H](c2ccc(Cl)cc2)N([C@H](CN(c2ccccc2)S(=O)(=O)C2CC2)C2CC2)C1=O (single isomer, unassigned) [Example 360, 2-((2R,5R,6R)-6-(3-Chlorophenyl)-5-(4-chlorophenyl)-4-((S)-1-cyclopropyl-2-(N-phenylcyclopropanesulfonamido)ethyl)-3-oxomorpholin-2-yl)acetamide or 2-((2S,5R,6R)-6-(3-chlorophenyl)-5-(4-chlorophenyl)-4-((S)-1-cyclopropyl-2-(N-phenylcyclopropanesulfonamido)ethyl)-3-oxomorpholin-2-yl)acetamide] | 1 nM
CC[C@@H](CS(=O)(=O)[C@H](C)C(C)C)N1C(=O)[C@H](CC(=O)O)O[C@H](c2cccc(Cl)c2)[C@H]1c1ccc(Cl)cc1 (single isomer, unassigned) [Example 283] | 3 nM
CC[C@@H](CS(=O)(=O)C1CCOCC1)N1C(=O)[C@@H](CC(=O)O)O[C@H](c2cccc(Cl)c2)[C@H]1c1ccc(Cl)cc1 (single isomer, unassigned) [Example 187, 2-((2R,5R,6R)-6-(3-chlorophenyl)-5-(4-chlorophenyl)-3-oxo-4-((S)-1-((tetrahydro-2H-pyran-4-yl)sulfonyl)butan-2-yl)morpholin-2-yl)acetic acid or 2-((2S,5R,6R)-6-(3-chlorophenyl)-5-(4-chlorophenyl)-3-oxo-4-((S)-1-((tetrahydro-2H-pyran-4-yl)sulfonyl)butan-2-yl)morpholin-2-yl)acetic acid] | 2 nM
O=C(O)C[C@H]1O[C@H](c2cccc(Cl)c2)[C@@H](c2ccc(Cl)cc2)N([C@H](CN(c2c(F)cccc2F)S(=O)(=O)C2CC2)C2CC2)C1=O (single isomer, unassigned) [Example 251, 2-((2R,5R,6R)-6-(3-chlorophenyl)-5-(4-chlorophenyl)-4-((S)-1-cyclopropyl-2-(N-(2,6-difluorophenyl)cyclopropanesulfonamido)ethyl)-3-oxomorpholin-2-yl)acetic acid or 2-((2S,5R,6R)-6-(3-chlorophenyl)-5-(4-chlorophenyl)-4-((S)-1-cyclopropyl-2-(N-(2,6-difluorophenyl)cyclopropanesulfonamido)ethyl)-3-oxomorpholin-2-yl)acetic acid] | < 1 nM
CC[C@@H](CS(=O)(=O)C(C)(C)C)N1C(=O)[C@@H](CNC(C)=O)O[C@H](c2cccc(Cl)c2)[C@H]1c1ccc(Cl)cc1 (single isomer, unassigned) [Example 379, N-(((2R,5R,6R)-4-((S)-1-(tert-Butylsulfonyl)butan-2-yl)-6-(3-chlorophenyl)-5-(4-chlorophenyl)-3-oxomorpholin-2-yl)methyl)acetamide or N-(42S,5R,6R)-4-((S)-1-(tert-butylsulfonyl)butan-2-yl)-6-(3-chlorophenyl)-5-(4-chlorophenyl)-3-oxomorpholin-2-yl)methyl)acetamide] | 82 nM
CC[C@@H](CS(=O)(=O)C(C)(C)C)N1C(=O)[C@@H](CC(=O)O)O[C@H](c2cccc(Cl)c2)[C@H]1c1ccc(Cl)c(F)c1 (single isomer, unassigned) [Example 183, 2-((2R,5R,6R)-4-((S)-1-(tert-butylsulfonyl)butan-2-yl)-5-(4-chloro-3-fluorophenyl)-6-(3-chlorophenyl)-3-oxomorpholin-2-yl)acetic acid or 2-((2S,5R,6R)-4-((S)-1-(tert-butylsulfonyl)butan-2-yl)-5-(4-chloro-3-fluorophenyl)-6-(3-chlorophenyl)-3-oxomorpholin-2-yl)acetic acid] | 178 nM
CC(C)(C)S(=O)(=O)C[C@H](C1CC1)N1C(=O)[C@@H](CC(=O)Nc2ccccc2)O[C@H](c2cccc(Cl)c2)[C@H]1c1ccc(Cl)cc1 (single isomer, unassigned) [Example 351, 2-((2R,5R,6R)-4-((S)-2-(tert-Butylsulfonyl)-1-cyclopropylethyl)-6-(3-chlorophenyl)-5-(4-chlorophenyl)-3-oxomorpholin-2-yl)-N-phenylacetamide or 2-((2S,5R,6R)-4-((S)-2-(tert-butylsulfonyl)-1-cyclopropylethyl)-6-(3-chlorophenyl)-5-(4-chlorophenyl)-3-oxomorpholin-2-yl)-N-phenylacetamide] | 4 nM
C[C@@H](CS(=O)(=O)C(C)(C)C)N1C(=O)[C@@H](CC(=O)NCCO)O[C@H](c2cccc(Cl)c2)[C@H]1c1ccc(Cl)cc1 (single isomer, unassigned) [Example 234, 2-((2R,5R,6R)-4-((S)-1-(tert-butylsulfonyl)propan-2-yl)-6-(3-chlorophenyl)-5-(4-chlorophenyl)-3-oxomorpholin-2-yl)-N-(2-hydroxyethyl)acetamide or 2-((2S,5R,6R)-4-((S)-1-(tert-butylsulfonyl)propan-2-yl)-6-(3-chlorophenyl)-5-(4-chlorophenyl)-3-oxomorpholin-2-yl)-N-(2-hydroxyethyl)acetamide] | 15 nM
CC(C)(C)S(=O)(=O)C[C@@H](C1CCC1)N1C(=O)[C@@H](CC(=O)O)O[C@H](c2cccc(Cl)c2)[C@H]1c1ccc(Cl)cc1 (single isomer, unassigned) [Example 273, 2-((2R,5R,6R)-4-((R)-2-(tert-Butylsulfonyl)-1-cyclobutylethyl)-6-(3-chlorophenyl)-5-(4-chlorophenyl)-3-oxomorpholin-2-yl)acetic acid or 2-((2S,5R,6R)-4-((R)-2-(tert-butylsulfonyl)-1-cyclobutylethyl)-6-(3-chlorophenyl)-5-(4-chlorophenyl)-3-oxomorpholin-2-yl)acetic acid] | 95 nM
CC(C)(C)S(=O)(=O)C[C@H](C1CC1)N1C(=O)[C@@H](Cc2cnn[nH]2)O[C@H](c2cccc(Cl)c2)[C@H]1c1ccc(Cl)cc1 (single isomer, unassigned) [Example 386, (2R,5R,6R)-2-((1H-1,2,3-Triazol-5-yl)methyl)-4-((S)-2-(tert-butylsulfonyl)-1-cyclopropylethyl)-6-(3-chlorophenyl)-5-(4-chlorophenyl)morpholin-3-one or (2S,5R,6R)-2-((1H-1,2,3-triazol-5-yl)methyl)-4-((S)-2-(tert-butylsulfonyl)-1-cyclopropylethyl)-6-(3-chlorophenyl)-5-(4-chlorophenyl)morpholin-3-one] | 13 nM
C[C@@H](CS(=O)(=O)C(C)(C)C)N1C(=O)[C@H](CC(=O)NO)O[C@H](c2cccc(Cl)c2)[C@H]1c1ccc(Cl)cc1 (single isomer, unassigned) [Example 229, 2-((2S,5R,6R)-4-((S)-1-(tert-butylsulfonyl)propan-2-yl)-6-(3-chlorophenyl)-5-(4-chlorophenyl)-3-oxomorpholin-2-yl)-N-hydroxyacetamide or 2-((2R,5R,6R)-4-((S)-1-(tert-butylsulfonyl)propan-2-yl)-6-(3-chlorophenyl)-5-(4-chlorophenyl)-3-oxomorpholin-2-yl)-N-hydroxyacetamide] | 8 nM
CC(C)(C)SC[C@H](C1CC1)N1C(=O)[C@@H](CC(=O)O)O[C@H](c2ccc(Br)c(Cl)c2)[C@H]1c1ccc(Cl)cc1 (single isomer, unassigned) [Example 322, 2-((2R,5R,6R)-6-(4-Bromo-3-chlorophenyl)-4-((S)-2-(tert-butylthio)-1-cyclopropylethyl)-5-(4-chlorophenyl)-3-oxomorpholin-2-yl)acetic acid or 2-((2S,5R,6R)-6-(4-bromo-3-chlorophenyl)-4-((S)-2-(tert-butylthio)-1-cyclopropylethyl)-5-(4-chlorophenyl)-3-oxomorpholin-2-yl)acetic acid] | 51 nM
CC(C)(C)S(=O)(=O)C[C@H](C1CCC1)N1C(=O)[C@@H](CC(=O)O)O[C@H](c2cccc(Cl)c2)[C@H]1c1ccc(Cl)cc1 (single isomer, unassigned) [Example 271, 2-((2R,5R,6R)-4-((S)-2-(tert-Butylsulfonyl)-1-cyclobutylethyl)-6-(3-chlorophenyl)-5-(4-chlorophenyl)-3-oxomorpholin-2-yl)acetic acid or 2-((2S,5R,6R)-4-((S)-2-(tert-butylsulfonyl)-1-cyclobutylethyl)-6-(3-chlorophenyl)-5-(4-chlorophenyl)-3-oxomorpholin-2-yl)acetic acid] | 5 nM
CN(C)C(=O)C[C@H]1O[C@H](c2cccc(Cl)c2)[C@@H](c2ccc(Cl)cc2)N([C@H](CN(c2ccccc2F)S(=O)(=O)C2CC2)C2CC2)C1=O (single isomer, unassigned) [Example 367, 2-((2R,5R,6R)-6-(3-Chlorophenyl)-5-(4-chlorophenyl)-4-((S)-1-cyclopropyl-2-(N-(2-fluorophenyl)cyclopropanesulfonamido)ethyl)-3-oxomorpholin-2-yl)-N,N-dimethylacetamide or 2-((2S,5R,6R)-6-(3-chlorophenyl)-5-(4-chlorophenyl)-4-((S)-1-cyclopropyl-2-(N-(2-fluorophenyl)cyclopropanesulfonamido)ethyl)-3-oxomorpholin-2-yl)-N,N-dimethylacetamide] | 4 nM
